Experimental data: US7342014B2, “Diamine derivatives” (Daiichi Pharmaceutical Co., Ltd., priority 2001, dated 2008)
Where a name gives a salt, the structure may show the parent alone.

For CC(C)N1CCc2nc(C(=O)N[C@@H]3CN(S(C)(=O)=O)C[C@H]3NC(=O)c3cc4cc(Cl)ccc4[nH]3)sc2C1 (as salt: hydrochloride), the melting point was 230 to 235 °C (dec.). For CN1CCc2nc(C(=O)N[C@@H]3CNC[C@H]3NC(=O)c3cc4cc(Cl)ccc4[nH]3)sc2C1 (as salt: hydrochloride), the melting point was 248 to 250 °C (dec.). In the case of CC(=O)N1C[C@@H](NC(=O)c2cc3cc(Cl)ccc3[nH]2)[C@H](NC(=O)c2nc3c(s2)CN(C(C)C)CC3)C1 (as salt: hydrochloride) [Example 114, N-((3R,4R)-1-Acetyl-4-{[(5-chloroindol-2-yl)carbonyl]-amino}pyrrolidin-3-yl)-5-isopropyl-4,5,6,7-tetrahydro-thiazolo[5,4-c]pyridine-2-carboxamide hydrochloride], the melting point is reported as 254 to 258 °C (dec.). For CCOC(=O)N1C[C@@H](NC(=O)c2cc3cc(Cl)ccc3[nH]2)[C@H](NC(=O)c2nc3c(s2)CN(C(C)C)CC3)C1 (as salt: hydrochloride) [Example 116, Ethyl (3R,4R)-3-{[(5-chloroindol-2-yl)carbonyl]amino}-4-{[(5-isopropyl-4,5,6,7-tetrahydrothiazolo[5,4-c]pyridin-2-yl)carbonyl]amino}pyrrolidine-1-carboxylate hydrochloride], the melting point was 225 to 228 °C (dec.). With COCC(=O)N1CC[C@H](NC(=O)c2cc3cc(Cl)ccc3[nH]2)[C@H](NC(=O)c2nc3c(s2)CN(C)CC3)C1 (as salt: hydrochloride) [Example 171, N-[(3R,4S)-4-{[(5-Chloroindol-2-yl)carbonyl]amino}-1-(2-methoxyacetyl)piperidin-3-yl]-5-methyl-4,5,6,7-tetrahydro-thiazolo[5,4-c]pyridine-2-carboxamide hydrochloride] the melting point was 207 to 220 °C (dec.). Compound COCC(=O)N1CC[C@@H](NC(=O)c2cc3cc(Cl)ccc3[nH]2)[C@H](NC(=O)c2nc3c(s2)CN(C)CC3)C1 (as salt: hydrochloride) [Example 172, N-[(3R,4R)-4-{[(5-Chloroindol-2-yl)carbonyl]amino}-1-(2-methoxyacetyl)piperidin-3-yl]-5-methyl-4,5,6,7-tetrahydro-thiazolo[5,4-c]pyridine-2-carboxamide hydrochloride] has a melting point of 213 to 230 °C. With CC(=O)N1CC[C@H](NC(=O)c2cc3cc(F)ccc3[nH]2)[C@H](NC(=O)c2nc3c(s2)CN(C)CC3)C1 (relative stereo) (as salt: hydrochloride) the melting point was 202 °C (dec.). With CN1CCc2nc(C(=O)N[C@@H]3CCN(S(C)(=O)=O)C[C@@H]3NC(=O)c3cc4cc(Cl)ccc4[nH]3)sc2C1 (relative stereo) (as salt: hydrochloride) the melting point was 228 to 245 °C (dec.). With COCCOC(=O)N1CC[C@H](NC(=O)c2cc3cc(Cl)ccc3[nH]2)[C@H](NC(=O)c2nc3c(s2)CN(C)CC3)C1 (relative stereo) (as salt: hydrochloride) the melting point was 224 to 226 °C (dec.). With CCOC(=O)N1CC[C@@H](NC(=O)c2nc3c(s2)CN(C)CC3)[C@@H](NC(=O)c2cc3cc(Cl)ccc3[nH]2)C1 (relative stereo) (as salt: hydrochloride) the melting point was 213 to 225 °C (dec.). In the case of CC(C)C(=O)N1CC[C@H](NC(=O)c2cc3cc(Cl)ccc3[nH]2)[C@H](NC(=O)c2nc3c(s2)CN(C)CC3)C1 (relative stereo) (as salt: hydrochloride), the melting point is reported as 266 to 272 °C (dec.). With CN1CCc2nc(C(=O)N[C@@H]3CN(C(=O)C(C)(C)C)CC[C@@H]3NC(=O)c3cc4cc(Cl)ccc4[nH]3)sc2C1 (relative stereo) (as salt: hydrochloride) the melting point was 250 to 255 °C (dec.). For CN1CCc2nc(C(=O)N[C@@H]3CN(C(=O)C4CCC4)CC[C@@H]3NC(=O)c3cc4cc(Cl)ccc4[nH]3)sc2C1 (relative stereo) (as salt: hydrochloride), the melting point was 271 to 275 °C (dec.). With CN1CCc2nc(C(=O)N[C@@H]3CN(C(=O)C4CCCC4)CC[C@@H]3NC(=O)c3cc4cc(Cl)ccc4[nH]3)sc2C1 (relative stereo) (as salt: hydrochloride) the melting point was 254 to 260 °C (dec.). In the case of COCC(=O)N1CC[C@H](NC(=O)c2cc3cc(F)ccc3[nH]2)[C@H](NC(=O)c2nc3c(s2)CN(C)CC3)C1 (relative stereo) (as salt: hydrochloride), the melting point is reported as 190 to 208 °C (dec.). In the case of CN1CCc2nc(C(=O)N[C@@H]3CN(C(=O)C4CC(O)C4)CC[C@@H]3NC(=O)c3cc4cc(Cl)ccc4[nH]3)sc2C1 (relative stereo) (as salt: hydrochloride), the melting point is reported as 200 °C (dec.). For COC1CC(C(=O)N2CC[C@H](NC(=O)c3cc4cc(Cl)ccc4[nH]3)[C@H](NC(=O)c3nc4c(s3)CN(C)CC4)C2)C1 (relative stereo) (as salt: hydrochloride), the melting point was 191 °C (dec.). For CN1CCc2nc(C(=O)N[C@@H]3CN(C(=O)C4CCOCC4)CC[C@@H]3NC(=O)c3cc4cc(Cl)ccc4[nH]3)sc2C1 (relative stereo) (as salt: hydrochloride), the melting point was 225 to 248 °C (dec.). In the case of COCC(=O)N1CC[C@H](NC(=O)c2cc3cc(Cl)ccc3[nH]2)[C@H](NC(=O)c2nc3c(s2)CN(C(C)(C)CO)CC3)C1 (relative stereo) (as salt: hydrochloride), the melting point is reported as 221 to 232 °C (dec.). With COCC(=O)N1CC[C@H](NC(=O)c2cc3cc(F)ccc3[nH]2)[C@H](NC(=O)c2nc3c(s2)CN(C(C)C)CC3)C1 (relative stereo) (as salt: hydrochloride) the melting point was 214 to 228 °C (dec.). For CCNC(=O)N1CC[C@H](NC(=O)c2cc3cc(Cl)ccc3[nH]2)[C@H](NC(=O)c2nc3c(s2)CN(C)CC3)C1 (relative stereo) (as salt: hydrochloride), the melting point was 221 to 235 °C (dec.). In the case of COCCN1CC[C@H](NC(=O)c2cc3cc(Cl)ccc3[nH]2)[C@H](NC(=O)c2nc3c(s2)CN(C)CC3)C1 (relative stereo) (as salt: hydrochloride), the melting point is reported as 238 to 242 °C (dec.). With CN1CCc2nc(C(=O)N[C@@H]3CNCC[C@@H]3NC(=O)c3cc4cc(Cl)ccc4[nH]3)sc2C1 (relative stereo) (as salt: hydrochloride) [Example 118, N-((3R*,4S*)-4-{[(5-Chloroindol-2-yl)carbonyl]amino}-piperidin-3-yl)-5-methyl-4,5,6,7-tetrahydrothiazolo[5,4-c]pyridine-2-carboxamide dihydrochloride] the melting point was 240 to 258 °C (dec.). For CN1CCc2nc(C(=O)N[C@@H]3CNCC[C@@H]3NC(=O)c3cc4cc(F)ccc4[nH]3)sc2C1 (relative stereo) (as salt: hydrochloride) [Example 122, N-((3R*,4S*)-4-{[(5-Fluoroindol-2-yl)carbonyl]amino}-piperidin-3-yl)-5-methyl-4,5,6,7-tetrahydrothiazolo[5,4-c]pyridine-2-carboxamide dihydrochloride], the melting point was 236 to 245 °C (dec.). For CC(=O)N1CC[C@@H](NC(=O)c2nc3c(s2)CN(C)CC3)[C@@H](NC(=O)c2cc3cc(Cl)ccc3[nH]2)C1 (relative stereo) (as salt: hydrochloride) [Example 124, N-((3R*,4S*)-1-Acetyl-3-{[(5-chloroindol-2-yl)carbonyl]-amino}piperidin-4-yl)-5-methyl-4,5,6,7-tetrahydro-thiazolo[5,4-c]pyridine-2-carboxamide hydrochloride], the melting point was 225 to 250 °C (dec.). For CN1CCc2nc(C(=O)N[C@@H]3CN(S(C)(=O)=O)CC[C@@H]3NC(=O)c3cc4cc(Cl)ccc4[nH]3)sc2C1 (relative stereo) (as salt: hydrochloride) [Example 126, N-[(3R*,4S*)-{[(5-Chloroindol-2-yl)carbonyl]amino}-1-(methylsulfonyl)piperidin-3-yl]-5-methyl-4,5,6,7-tetrahydrothiazolo[5,4-c]pyridine-2-carboxamide hydrochloride], the melting point was 225 to 230 °C (dec.). For CN1CCc2nc(C(=O)N[C@@H]3CN(S(C)(=O)=O)CC[C@@H]3NC(=O)c3cc4cc(F)ccc4[nH]3)sc2C1 (relative stereo) (as salt: hydrochloride) [Example 128], the melting point was 216 to 250 °C (dec.). For COC(=O)N1CC[C@H](NC(=O)c2cc3cc(Cl)ccc3[nH]2)[C@H](NC(=O)c2nc3c(s2)CN(C)CC3)C1 (relative stereo) (as salt: hydrochloride) [Example 129, Methyl (3R*,4S*)-4-{[(5-chloroindol-2-yl)carbonyl]amino}-3-{[(5-methyl-4,5,6,7-tetrahydrothiazolo[5,4-c]pyridin-2-yl)carbonyl]amino}piperidine-1-carboxylate hydrochloride], the melting point was 248 to 253 °C (dec.). With CCOC(=O)N1CC[C@H](NC(=O)c2cc3cc(Cl)ccc3[nH]2)[C@H](NC(=O)c2nc3c(s2)CN(C)CC3)C1 (relative stereo) (as salt: hydrochloride) [Example 130, Ethyl (3R*,4S*)-4-{[(5-chloroindol-2-yl)carbonyl]amino}-3-{[(5-methyl-4,5,6,7-tetrahydrothiazolo[5,4-c]pyridin-2-yl)carbonyl]amino}piperidine-1-carboxylate hydrochloride] the melting point was 215 to 225 °C (dec.). For CCC(=O)N1CC[C@H](NC(=O)c2cc3cc(Cl)ccc3[nH]2)[C@H](NC(=O)c2nc3c(s2)CN(C)CC3)C1 (relative stereo) (as salt: hydrochloride) [Example 133, N-((3R*,4S*)-4-{[(5-Chloroindol-2-yl)carbonyl]amino}-1-propionylpiperidin-3-yl)-5-methyl-4,5,6,7-tetrahydro-thiazolo[5,4-c]pyridine-2-carboxamide hydrochloride], the melting point was 214 to 228 °C (dec.). With CN1CCc2nc(C(=O)N[C@@H]3CN(C(=O)CC(C)(C)C)CC[C@@H]3NC(=O)c3cc4cc(Cl)ccc4[nH]3)sc2C1 (relative stereo) (as salt: hydrochloride) [Example 136, N-[(3R*,4S*)-4-{[(5-Chloroindol-2-yl)carbonyl]amino}-1-(3,3-dimethylbutanoyl)piperidin-3-yl]-5-methyl-4,5,6,7-tetrahydrothiazolo[5,4-c]pyridine-2-carboxamide hydrochloride] the melting point was 260 to 265 °C (dec.).
